We go through 29 compounds from patent US8431593B2, “Heteroaryl amide derivatives” (H. Lundbeck A/S, priority 2006, dated 2013).

For this assay, the target named is T1, P2X7 receptor (Homo sapiens, UniProt Q99572).
T1 construct: host or cells: SH-SY5Y
T1 sequence (Q99572 1-595): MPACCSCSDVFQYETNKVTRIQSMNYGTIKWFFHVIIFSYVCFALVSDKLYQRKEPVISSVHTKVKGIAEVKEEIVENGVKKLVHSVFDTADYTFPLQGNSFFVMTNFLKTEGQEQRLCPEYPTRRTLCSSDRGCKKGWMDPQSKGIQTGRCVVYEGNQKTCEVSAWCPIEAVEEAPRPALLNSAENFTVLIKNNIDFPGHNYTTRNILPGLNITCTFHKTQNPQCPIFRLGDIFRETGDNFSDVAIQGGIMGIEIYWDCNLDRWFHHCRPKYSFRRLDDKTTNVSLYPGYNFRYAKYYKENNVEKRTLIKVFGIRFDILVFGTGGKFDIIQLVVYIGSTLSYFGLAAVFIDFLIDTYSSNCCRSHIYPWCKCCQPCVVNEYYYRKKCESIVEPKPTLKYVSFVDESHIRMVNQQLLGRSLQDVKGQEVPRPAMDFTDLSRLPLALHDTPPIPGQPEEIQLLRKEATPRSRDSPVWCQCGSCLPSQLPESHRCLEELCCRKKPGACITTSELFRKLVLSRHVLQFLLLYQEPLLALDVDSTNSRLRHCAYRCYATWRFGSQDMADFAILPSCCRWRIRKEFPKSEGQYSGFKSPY
As to the kind of experiment: P2X7 calcium mobilization assay, high throughput, antagonist activity (Example 4A). In kind it is cell-based. The settings on record: Example 4A, read-out: IC50. A digest of the protocol:
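FLIPR^TETRA calcium read-out: maximum RFU per well minus average no-agonist control, with agonist wells giving the average positive maximum. Cells seeded at 100,000/well one day ahead, dye-loaded 1 h, rinsed, then exposed to compound for 1 h at room temperature.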

Setting [1] is: fluorescence response of cells exposed to 80 μM 2′(3′)-O-(4-benzoyl-benzoyl)adenosine 5′-triphosphate.
Setting [2] is: 50% decrease in the fluorescence response of cells exposed to 80 μM 2′(3′)-O-(4-benzoyl-benzoyl)adenosine 5′-triphosphate.

Where two headings read alike, the source gives them in different places.

`COC1CCN(C(=O)c2cn3c(NC(=O)CC45CC6CC(CC(C6)C4)C5)cccc3n2)CC1` [Compound 385, 2-adamantan-1-yl-N-{2-[(4-methoxypiperidin-1-yl)carbonyl]imidazo[1,2-a]pyridin-5-yl}acetamide]: under setting [1], the IC50 (commonly the point on the concentration scale where inhibition reaches its midpoint) was < 2000 nM. Turning to `O=C(CC12CC3CC(CC(C3)C1)C2)Nc1cccc2nc(C(=O)N3CCC(F)CC3)cn12` [Compound 387, 2-adamantan-1-yl-N-{2-[(4-fluoropiperidin-1-yl)carbonyl]imidazo[1,2-a]pyridin-5-yl}acetamide], the IC50 under setting [1] is < 2000 nM.

As for `O=C(CC12CC3CC(CC(C3)C1)C2)Nc1cccc2nc(C(=O)N3CCC(F)(F)CC3)cn12` [Compound 388, 2-adamantan-l-yl-N-(2-[(4,4-difluoropiperidin-1-yl)carbonyl]imidazo [1,2-a]pyridin-5-yl}acetamide], the IC50 under setting [1] is < 2000 nM. For `COCCC1CCN(C(=O)c2cn3c(NC(=O)CC45CC6CC(CC(C6)C4)C5)cccc3n2)CC1` [Compound 389, 2-adamantan-1-yl-N-(2-{[4-(2-methoxyethyl)piperidin-1-yl]carbonyl}imidazo[1,2-a]pyridin-5-yl)acetamide], the IC50 under setting [1] is < 2000 nM. Consider `CN(C(=O)c1cn2c(NC(=O)CC34CC5CC(CC(C5)C3)C4)cccc2n1)C1CCOC1` (centres unmarked) [Compound 393, 5-[(adamantan-1-ylacetyl)amino]-N-methyl-N-(tetrahydrofuran-3-yl)imidazo[1,2-a]pyridine-2-carboxamide], for which, under setting [1], the IC50 is < 2000 nM. On the same count and under the same terms, the same measure for `COCC1CCN(C(=O)c2cn3c(NC(=O)CC45CC6CC(CC(C6)C4)C5)cccc3n2)CC1` [Compound 396, 2-adamantan-1-yl-N-(2-{[4-(methoxymethyl)piperidin-1-yl]carbonyl}imidazo[1,2-a]pyridin-5-yl)acetamide]: < 2000 nM; for `CS(=O)(=O)NC1CCN(C(=O)c2cn3c(NC(=O)CC45CC6CC(CC(C6)C4)C5)cccc3n2)CC1` [Compound 398, 2-adamantan-1-yl-N-[2-({4-[(methylsulfonyl)amino]piperidin-1-yl}carbonyl)imidazo [1,2-a]pyridin-5-yl]acetamide]: < 2000 nM. Consider `CS(=O)(=O)N1CCN(C(=O)c2cn3c(NC(=O)CC45CC6CC(CC(C6)C4)C5)cccc3n2)CC1` [Compound 399, 2-adamantan-1-yl-N-(2-{[4-(methylsulfonyl)piperazin-1-yl]carbonyl}imidazo [1,2-a]pyridin-5-yl)acetamide], for which, under setting [1], the half-maximal inhibitory concentration (IC50) was < 2000 nM. Still for that read-out and setting: under `CN(C)[S@SP3](=O)(=O)N1CCN(C(=O)c2cn3c(NC(=O)CC45CC6CC(CC(C6)C4)C5)cccc3n2)CC1` [Compound 400, 2-adamantan-1-yl-N-(2-{[4-(dimethylsulfamoyl)piperazin-1-yl]carbonyl}imidazo [1,2-a]pyridin-5-yl)acetamide] stands < 2000 nM; under `CC(C)C(=O)NC1CCN(C(=O)c2cn3c(NC(=O)CC45CC6CC(CC(C6)C4)C5)cccc3n2)CC1` [Compound 402, N-[1-({5-[(adamantan-1-ylacetyl)amino]imidazo[1,2-a]pyridin-2-yl}carbonyl)piperidin-4-yl]-2-methylpropanamide], < 2000 nM; under `CN(CCNS(C)(=O)=O)C(=O)c1cn2c(NC(=O)CC34CC5CC(CC(C5)C3)C4)cccc2n1` [Compound 404, 5-[(adamantan-1-ylacetyl)amino]-N-methyl-N-{2-[(methylsulfonyl)amino]ethyl} imidazo[1,2-a] pyridine-2-carboxamide], < 2000 nM. `CN(CCO)C(=O)c1cn2c(NC(=O)CC34CC5CC(CC(C5)C3)C4)cccc2n1` [Compound 405, 5-[(adamantan-1-ylacetyl)amino]-N-(2-hydroxyethyl)-N-methylimidazo[1,2-a]pyridine-2-carboxamide]: under setting [1], the IC50 was < 2000 nM. In the case of `O=C(CC12CC3CC(CC(C3)C1)C2)Nc1cccc2nc(C(=O)N(CCO)C3CCCCC3)cn12` [Compound 407, 5-[(adamantan-1-ylacetyl)amino]-N-cyclohexyl-N-(2-hydroxyethyl)imidazo [1,2-a]pyridine-2-carboxamide], the IC50 under setting [1] was < 2000 nM. With `CC(=O)NC1CCN(C(=O)c2cn3c(NC(=O)CC45CC6CC(CC(C6)C4)C5)cccc3n2)CC1` [Compound 408, N-{2-[(4-acetamidopiperidin-1-yl)carbonyl]imidazo[1,2-a]pyridin-5-yl}-2-adamantan-1-ylacetamide], under setting [1], the IC50 is < 2000 nM. In the case of `CCCC(=O)NC1CCN(C(=O)c2cn3c(NC(=O)CC45CC6CC(CC(C6)C4)C5)cccc3n2)CC1` [Compound 409, N-[1-({5-[(adamantan-1-ylacetyl)amino]imidazo[1,2-a]pyridin-2-yl}carbonyl)piperidin-4-yl]butanamide], the IC50 under setting [1] is < 2000 nM. As for `CCCCCN(CCO)C(=O)c1cn2c(NC(=O)CC34CC5CC(CC(C5)C3)C4)cccc2n1` [Compound 410, 5-[(adamantan-1-ylacetyl)amino]-N-(2-hydroxyethyl)-N-pentylimidazo[1,2-a]pyridine-2-carboxamide], under setting [1], the IC50 was < 2000 nM. With `CC(C)(C)NCCOC(=O)c1cn2c(NC(=O)CC34CC5CC(CC(C5)C3)C4)cccc2n1` [Compound 411, 2-(tert-butylamino)ethyl 5-[(adamantan-1-ylacetyl)amino] imidazo [1,2-a]pyridine-2-carboxylate], the 50% inhibitory concentration (IC50) under setting [1] was < 2000 nM. `CCCCN(CCO)C(=O)c1cn2c(NC(=O)CC34CC5CC(CC(C5)C3)C4)cccc2n1` [Compound 412, 5-[(adamantan-l-ylacetyl)amino]-N-butyl-N-(2-hydroxyethyl)imidazo [1,2-a]pyridine-2-carboxamide]: the IC50 under setting [1] was < 2000 nM. With `CC(C)N(CCO)C(=O)c1cn2c(NC(=O)CC34CC5CC(CC(C5)C3)C4)cccc2n1` [Compound 413, 5-[(adamantan-1-ylacetyl)amino]-N-(2-hydroxyethyl)-N-isopropylimidazo[1,2-a]pyridine-2-carboxamide], the IC50 under setting [1] was < 2000 nM.

For the compound `CCN(CCO)C(=O)c1cn2c(NC(=O)CC34CC5CC(CC(C5)C3)C4)cccc2n1` [Compound 414, 5-[(adamantan-1-ylacetyl)amino]-N-ethyl-N-(2-hydroxyethyl)imidazo [1,2-a]pyridine-2-carboxamide], the IC50 under setting [1] was < 2000 nM. In the case of `O=C(CC12CC3CC(CC(C3)C1)C2)Nc1cccc2nc(C(=O)N3CCCCC3CO)cn12` (centres unmarked) [Compound 415, 2-adamantan-1-yl-N-(2-{[2-(hydroxymethyl)piperidin-1-yl]carbonyl}imidazo[1,2-a]pyridin-5-yl)acetamide], the IC50 under setting [1] is < 2000 nM. On to `CC(C)N(CCCO)C(=O)c1cn2c(NC(=O)CC34CC5CC(CC(C5)C3)C4)cccc2n1` [Compound 416, 5-[(adamantan-1-ylacetyl)amino]-N-(3-hydroxypropyl)-N-isopropylimidazo[1,2-a]pyridine-2-carboxamide], for which, under setting [1], the IC50 was < 2000 nM. Take `CCN(CCCO)C(=O)c1cn2c(NC(=O)CC34CC5CC(CC(C5)C3)C4)cccc2n1` [Compound 417, 5-[(adamantan-1-ylacetyl)amino]-N-ethyl-N-(3-hydroxypropyl) imidazo [1,2-a]pyridine-2-carboxamide]: under setting [1], the IC50 was < 2000 nM. On to `O=C(CC12CC3CC(CC(C3)C1)C2)Nc1cccc2nc(C(=O)N3CCCC(O)C3)cn12` (centres unmarked) [Compound 418, 2-adamantan-1-yl-N-{2-[(3-hydroxypiperidin-1-yl)carbonyl]imidazo [1,2-a]pyridin-5-yl}acetamide], for which, under setting [2], the IC50 was < 2000 nM. Take `O=C(CC12CC3CC(CC(C3)C1)C2)Nc1cccc2nc(C(=O)N3CC[C@H](O)C3)cn12` [Compound 419, 2-adamantan-1-yl-N-(2-{[(3S)-3-hydroxypyrrolidin-1-yl]carbonyl}imidazo [1,2-a]pyridin-5-yl)acetamide]: under setting [2], the IC50 is < 2000 nM. For `O=C(CC12CC3CC(CC(C3)C1)C2)Nc1cccc2nc(C(=O)N3CCC(CCO)CC3)cn12` [Compound 423, 2-adamantan-1-yl-N-(2-{[4-(2-hydroxyethyl)piperidin-1-yl]carbonyl}imidazo [1,2-a]pyridin-5-yl)acetamide], the IC50 under setting [2] is < 2000 nM.

Turning to `O=C(CC12CC3CC(CC(C3)C1)C2)Nc1cccc2nc(C(=O)N3CCC(CO)CC3)cn12` [Compound 424, 2-adamantan-1-yl-N-(2-{[4-(hydroxymethyl)piperidin-1-yl]carbonyl}imidazo[1,2-a]pyridin-5-yl)acetamide], under setting [2], the 50% inhibitory concentration (IC50) is < 2000 nM. For `O=C(CC12CC3CC(CC(C3)C1)C2)Nc1cccc2nc(C(=O)N3CCC(O)CC3)cn12` [Compound 426, 2-adamantan-1-yl-N-{2-[(4-hydroxypiperidin-1-yl)carbonyl]imidazo [1,2-a]pyridin-5-yl}acetamide], the IC50 under setting [2] is < 2000 nM. On the same count and under the same terms, under `CN(CCC(C)(C)O)C(=O)c1cn2c(NC(=O)CC34CC5CC(CC(C5)C3)C4)cccc2n1` [Compound 431, 5-[(adamantan-1-ylacetyl)amino]-N-(3-hydroxy-3-methylbutyl)-N-methylimidazo[1,2-a]pyridine-2-carboxamide] stands < 2000 nM.
